Results: patent US20090305954A1, “HISTIDINE-CONTAINING DIASTEREOMERIC PEPTIDES AND USES THEREOF” (Yeda Research and Development Co. Ltd., priority 2005, published 2009)
Square brackets hold non-standard residues; d marks the D form. Peptide text beside a SMILES is read from it.

Assays:
[1] = test system: AI CL1 human PC cells xenograft; assay: Inhibition of tumor growth in human prostate cancer xenografts, CL1; format: in vivo, nude male mice
Protocol: (§1) (i) Inhibition of tumor growth in human prostate cancer xenografts. Subcutaneouse (s.c.) implantation of human PC cells in mice was done as previously described in Gavish et al. (Gavish et al. 2002). Briefly, 0.1 ml AI CL1 or 22RV1 human PC cells (5×10^6 cells) in Matrigel were inoculated s.c. into the dorsal side of five to six week-old nude male mice weighing 20-25 g (Harlen Co., Israel). Two weeks after cell implantation, when the tumors diameter reached ≧5 mm (denoted as day 1), the diastereomer 13 and its all L-amino acid analog peptide (at 1 mg/kg, 0.1 mM), or vehicle (PBS, pH=7.4) were injected intratumorally (dosing volume of 2.5 ml/kg) three times a week for a total of 9 doses. Tumor size was measured by a caliper and recorded twice a week during a period of 28 days. Mice were weighed and tumor weight (mg) was estimated by using the formula of length×width×depth×0.52 in mm^3, assuming the specific gravity to be 1. At the end of the treatment, the mice were killed, and the tumors were removed, photographed, and weighed. The animal experimentation was conducted according to the rules of the Institutional Animal Care and Use Committee.

[2] = Acute toxicity test in mice (intravenous); format: in vivo; details: for mortality: mice, i.v., one dose per day for 2 days
Protocol: Acute toxicity of peptides 1, 13 and 16 was examined by intravenously injecting mice (n=3), each with one dose per day for 2 days of 0.5 ml solution containing peptides 1, 13 or 16 at 3, 9, 15, 20 and 30 mg/kg of body weight.
A week after injecting the peptides, blood samples were taken from the survived mice. […] Thus, the peptides 13 and 16 of the invention are not toxic even when administered at concentrations considerably higher than those necessary for their anticancer activity.

[3] = test system: 22RV1 human PC cells xenograft; assay: Inhibition of tumor growth in human prostate cancer xenografts, 22RV1; format: in vivo, nude male mice; details: 22RV1 xenograft
Protocol: as §1
Serum PSA levels. Four weeks after the first treatment, blood was withdrawn from the 22RV1-inoculated mice in order to determine the level of prostate specific antigen (PSA). The blood samples were taken directly to heparin containing tubes, centrifuged, and the supernatants were stored at −20° C. The CanAg PSA EIA kit (CanAg Diagnostics) was used to determine the total PSA in the mice plasma (Gavish et al., 2002). Tumor weight and PSA levels, represented as the mean±SE, were calculated from the raw data and then subjected to Student's t test. A value of P<0.05 was considered as statistically significant.

[4] = test system: 22RV1 prostate tumor lung metastases; assay: Inhibition of prostate tumor-derived lung metastases formation
Source text: During the experiment, the mice were monitored continuously for clinical signs of toxicity.

22RV1 human PC cells = assay: XTT proliferation (cytotoxicity) assay, 22RV1; format: cell-based
Protocol: The CL1 human prostate carcinoma (PC) cell line is an androgen-independent (AI) subclone of LNCaP cell line, which was generated by culturing androgen-dependent (AD) LNCaP cells in charcoal-stripped, […], as described (Patel et al. 2000). 22RV1 human PC cells are AI sub-clones of the AD prostatic adenocarcinoma CWR22 xenograft (Sramkoski et al. 1999). CL1 and 22RV1 (ATCC, USA) were grown in RPMI-1640 supplemented with 10% FCS (Biological Industries, Beit Haemek, Israel). PC3 and DU145 are androgen-insensitive (AI) (non-responsive), invasive human prostate cancer cell lines. NIH-3T3 mouse fibroblast cell lines (ATCC, USA) were grown in DMEM supplemented with 10% BS. Murine Lewis lung carcinoma (LLC) cell lines were also grown in DMEM medium supplemented with 10% fetal calf serum and antibiotics under the same conditions as above.
A 96-well plate (Falcon) was used for the XTT proliferation assay. Cancer cells were grown for 24 hours (day 1) in RPMI-1640 medium ([…] cells/100 μl for LLC, CL1, 22RVI, DU 145 and PC3, respectively) supplemented with 10% fetal calf serum and antibiotics, at 37° C., in humidified atmosphere at 5% CO2 and 95% air, resulting in growth medium pH of 7.4. NIH-3T3 fibroblast cells (1×10^4 cells/100 μl) were grown in DMEM medium supplemented with 10% bovine calf serum and antibiotics under the same conditions as described above for the cancerous cells. Wells in the last two rows served as blanks (medium only, for measuring the background color of the medium) and 100% survival controls (cells and medium only without treatment), respectively.
In day 2, the peptides were dissolved in sterile PBS to a concentration of 200 μM (or 500 μM). The medium in the assay wells was replaced with 100 μl serum free medium. For the assays at pH 6, the medium was initially concentrated (×5 or ×10) and then diluted with double distilled water and addition of sodium carbonate. Before reaching the correct dilution, the medium was adjusted to pH 6 and then more water was added to reach the final dilution. The cells were grown in physiological pH, and the acidic pH was used only during the 24 hours incubation with the peptides. A sign for the correct acidity was a light yellow color of the medium. In line A of the plate, 160 μl of serum free medium was added, if the initial peptide concentration was 500 μM.
Peptide solutions, 100 μl (or 40 μl) were added to each assay well in line A, such that the final concentration of the peptide was […] and the volume 200 μl. The medium in the wells was mixed with multichannel pipette 5 times and 100 μl of it were transferred to the next row of wells (line B), to give a peptide concentration of 50 μM. The double dilution of the peptides continued downstream the plate in the same manner. The plates were then incubated for 24 h.
In day 3, XTT reaction solution was prepared by adding to 100 μl aliquots of activation solution (sodium 3′-[1-(phenyl-aminocarbonyl)-3,4-tetrazolium]-bis(4-methoxy-6-nitro) benzene sulfonic acid hydrate and N-methyl dibenzopyrazine methyl sulfate; mixed in a proportion of 50:1) (protected from light and kept in −20° C.), the substrate. 50 μl of XTT reaction solution were added to each well and the plates were incubated for 2 hours (37° C. and 5% CO2+95% air. In cases the incubation was not enough for the creation of the color, it was extended for up to 24 hours). The optical density was read at wavelength of 450 nm in an ELISA plate reader. Cell viability was determined relative to the control and final results were recorded. The results were confirmed using replications in at least three independent experiments. The LC50 for each peptide was obtained from the curve of cell viability versus concentration of peptide and taken from the concentration at which cell viability was 50%. The data shown in Table 1 are for only one experiment, but representative of all replications.

For `CC(C)C[C@H](NC(=O)[C@H](CC(C)C)NC(=O)[C@@H](CCCCN)NC(=O)[C@H](CC(C)C)NC(=O)[C@H](CC(C)C)NC(=O)[C@H](Cc1c[nH]cn1)NC(=O)[C@@H](CCCCN)NC(=O)[C@@H](CC(C)C)NC(=O)[C@H](CC(C)C)NC(=O)[C@@H](CCCCN)NC(=O)[C@H](Cc1c[nH]cn1)NC(=O)[C@H](CC(C)C)NC(=O)[C@@H](CC(C)C)NC(=O)[C@H](CCCCN)NC(=O)[C@@H](N)CC(C)C)C(N)=O` [Peptide 13] (H-LK[dL]LH[dK]L[dL][dK]HLL[dK]LL-NH2), the tumor weight ([1]; CL1 xenograft, 1 mg/kg intratumorally, 9 doses) was “significant reduction”, the “body weight of the animals compared with vehicle-treated control group” value ([1]; prostate cancer xenografts (CL1, 22RV1)) was “increase” and the mortality ([2]; 3 mg/kg) was “No mortality”. The mortality ([2]; 9 mg/kg) was “No mortality”, the mortality ([2]; 15 mg/kg) was “no mortality” and the mortality ([2]; 20 mg/kg) was “no mortality”. The “blood differential and biochemistry tests” value ([2]; survived mice, a week after injection) was “in the range of normal values”, the tumor weight ([3]; 1 mg/kg intratumorally, 9 doses) was “significant reduction” and the PSA serum levels ([3]; four weeks after first treatment) was “marked decrease”. The “body weight compared with vehicle treated control group” value ([4]; mouse, in vivo) was “significant increase”, the lung metastases ([4]; systemic administration, vs untreated controls) was “entirely abolished” and the “clinical signs of toxicity (condition of animals)” value ([4]; throughout the assay period) was “good condition”. The “Lethal Concentration (LC50)” value (22RV1 human PC cells; 22RV1, pH 6, 24 h) was 12.5 µg/mL and the “Lethal Concentration (LC50)” value (22RV1 human PC cells; 22RV1, pH 7.4, 24 h) was 12.5 µg/mL.
